Here are results for six molecules from ChEMBL document CHEMBL1149375, “Design and synthesis of dipeptidyl glutaminyl fluoromethyl ketones as potent severe acute respiratory syndrome coronovirus (SARS-CoV) inhibitors” (J Med Chem, 2006).

Experiment [1] relates to Vero. In words: Cytotoxicity against Vero (CCL81) cells. The experiment is classed as functional. Conditions: Chlorocebus sabaeus.
Experiment [2] concerns SARS-CoV. As to the kind of experiment: Inhibitory activity against SARS coronavirus FFMI replication in vero (CCL81) cells. The experiment is classed as functional, organism-based. The conditions noted are these: Severe acute respiratory syndrome-related coronavirus.
Experiment [3] concerns SARS-CoV. As to the kind of experiment: Inhibitory activity against SARS coronavirus 6109 replication in vero (CCL81) cells. The experiment is classed as functional, organism-based. Conditions: Severe acute respiratory syndrome-related coronavirus.
For experiment [4], the system named is SARS-CoV. As to the kind of experiment: Inhibitory activity against SARS coronavirus FFMI replication in Caco-2 cells. It is filed as functional, organism-based. Conditions: Severe acute respiratory syndrome-related coronavirus.
Experiment [5] concerns Vero. In words: Selectivity index (CC50/EC50) in SARS coronavirus 6109 infected Vero cells. It is filed as functional, Chlorocebus sabaeus.
A further experiment has as its system rhinovirus A2. As to the kind of experiment: Antiviral activity against Human rhinovirus 2 in a cell based assay. The experiment is classed as functional, organism-based.

Square brackets hold non-standard residues; d marks the D form. Peptide text beside a SMILES is read from it. * marks the point of attachment. ξ: configuration not given here. Ile(3ξ) = CCC(C)[C@H](N)C(=O)O; ξE = NC(CCC(=O)O)C(=O)O; Cbz = O=C(OCc1ccccc1)*; CH2F = FC*

With `CC(C)[C@H](NC(=O)OCc1ccccc1)C(=O)NC(CC(=O)O)C(=O)CF` (stereo not given in full), the CC50 (in general, the concentration that lowers cell viability or growth by half) with Vero [1] is above 100 µM. The concentration giving a half-maximal response (EC50) in the experiment with SARS-CoV [2], in the experiment with SARS-CoV [3] and in the experiment with SARS-CoV [4] was above 100 µM throughout.

`C[C@H](NC(=O)OCc1ccccc1)C(=O)NC(CCC(=O)N(C)C)C(=O)CF` (stereo partly drawn) (Cbz-Ala-[ξE](NMe2)-CH2F) showed a CC50 with Vero [1] above 100 µM. The EC50 with SARS-CoV [2], in the experiment with SARS-CoV [3] and with SARS-CoV [4] was above 100 µM throughout.

Take `CN(C)C(=O)CCC(NC(=O)CNC(=O)OCc1ccccc1)C(=O)CF` (stereo not drawn) (Cbz-Gly-[ξE](NMe2)-CH2F): in the experiment with Vero [1], the CC50 was above 100 µM. The EC50 in the experiment on SARS-CoV [2], with SARS-CoV [3] and in the experiment with SARS-CoV [4] was above 100 µM in each case.

In the experiment on Vero [1], `CC(C)C[C@H](NC(=O)OCc1ccccc1)C(=O)NC(CCC(=O)N(C)C)C(=O)CF` (stereo partly drawn) (Cbz-Leu-[ξE](NMe2)-CH2F) returned a CC50 above 100 µM. Further, the EC50 – broadly, the concentration giving half of the maximal effect – in the experiment with SARS-CoV [2] is 3.6 µM; in the experiment on SARS-CoV [3], 2.5 µM; in the experiment with SARS-CoV [4], 2.4 µM; in the experiment with rhinovirus A2, above 100 µg/mL. For the same molecule, the Selectivity index in the experiment on Vero [5] is above 40.

`CC(C)[C@H](NC(=O)OCc1ccccc1)C(=O)NC(CCC(=O)N(C)C)C(=O)CF` (stereo partly drawn) (Cbz-Val-[ξE](NMe2)-CH2F) registered a CC50 in the experiment with Vero [1] above 100 µM. The EC50 in the experiment with SARS-CoV [2] is 6.2 µM; in the experiment with SARS-CoV [3], 6.6 µM; in the experiment on SARS-CoV [4], 12.6 µM; in the experiment on rhinovirus A2 it was above 100 µg/mL. The same molecule gave a Selectivity index in the experiment on Vero [5] above 15.

`CCC(C)[C@H](NC(=O)OCc1ccccc1)C(=O)NC(CCC(=O)N(C)C)C(=O)CF` (stereo not given in full) (Cbz-[Ile(3ξ)]-[ξE](NMe2)-CH2F) came in with a CC50 in the experiment with Vero [1] above 100 µM. Besides, the EC50 in the experiment with SARS-CoV [2] is 8.9 µM; in the experiment on SARS-CoV [3], 5.3 µM; in the experiment with SARS-CoV [4], 8.8 µM; in the experiment with rhinovirus A2 it was above 100 µg/mL. Besides, the Selectivity index in the experiment on Vero [5] is recorded as above 18.
